Publication PMC13128454, “Mutant p53 protein accumulation is selectively targetable by proximity-inducing drugs” (Nature Chemical Biology, 2025)
Values joined by “and” are separate entries in the source; they are usually repeats but may differ in a detail not shown here. Identical values can stand only once.

Assays:
Type in all cases: cell-based
[1] = system: Halo–p53-Y220C ΔTAD–mCherry 293T cells; test: caspase 3/7 glo; conditions: for mean_norm (caspase 3/7 glo): Cell_Line Y220C, normalized to Concentration 0; for raw caspase 3/7 glo signal, single replicate: Y220C
Protocol: (§1) Cells were plated in 384-well plates (typically 1,500 cells per well) with varying concentrations of compounds with a total volume of 50 μl per well. After 1 day, caspase 3/7 glo reagent (Promega) was added following the manufacturer’s protocol and read out using an EnVision 2105 multimode plate reader.

[2] = system: parental 293T cells; test: caspase 3/7 glo; conditions: for mean_norm (caspase 3/7 glo): Cell_Line WT, normalized to Concentration 0; for raw caspase 3/7 glo signal, single replicate: WT
Protocol: as §1

[3] = system: Halo–p53-Y220C ΔTAD–mCherry 293T cells; test: annexin–PI staining; conditions: for P3_avg (P3 = early apoptotic) / P5_avg (P5 = late apoptotic): Cell_Line Y220C, proportion of cells; for avgprop_P3: average proportion AnnexinPos PIneg; for avgprop_P4: average proportion PIpos AnnexinNeg; for avgprop_P5: average proportion PIpos Annexinpos; for avgprop_P2: average proportion viable; for P2_viable / P3_AnnexinPos_PIneg / P4_PIpos_AnnexinNeg / P5_PIpos_Annexinpos: event count; for prop_P3: proportion AnnexinPos PIneg; for prop_P4: proportion PIpos AnnexinNeg
Protocol: Cells were plated in six-well plates and treated with varying concentrations of compounds for 1 day. Cells were stained with annexin V–AF488 and PI following the manufacturer’s instructions (Thermo Fisher, V13241) and analyzed by flow cytometry (Beckman CytoFLEX LX), using untreated cells to establish gates.

[4] = Y220C, Concentration 0.75, single replicate
[5] = Y220C, Concentration 1.5, single replicate

With CC[C@@H]1C(=O)N(C)c2cnc(Nc3ccc(C(=O)NC4CCN(C)CC4)cc3OC)nc2N1C1CCCC1 [BI2536] the “mean_norm (caspase 3/7 glo)” value ([1]; Concentration 0.0195312) was 0.7877, the “mean_norm (caspase 3/7 glo)” value ([1]; Concentration 0.0390625) was 0.7982 and the “mean_norm (caspase 3/7 glo)” value ([1]; Concentration 0.078125) was 0.8973. For the same molecule, the “mean_norm (caspase 3/7 glo)” value ([1]; Concentration 0.15625) was 0.6969, the “mean_norm (caspase 3/7 glo)” value ([1]; Concentration 0.3125) was 0.7125 and the “mean_norm (caspase 3/7 glo)” value ([1]; Concentration 0.625) was 0.7879. For the same molecule, the “mean_norm (caspase 3/7 glo)” value ([1]; Concentration 1.25) was 1.419, the “mean_norm (caspase 3/7 glo)” value ([1]; Concentration 2.5) was 1.997 and the “mean_norm (caspase 3/7 glo)” value ([1]; Concentration 5) was 1.954. The “mean_norm (caspase 3/7 glo)” value ([1]; Concentration 10) was 2.025, the “raw caspase 3/7 glo signal, single replicate” value (from here on “raw caspase 3/7 glo signal”) ([1]; Concentration 19.5312) was 115256 and 127200 and 115855 and 132591 and the “raw caspase 3/7 glo signal” value ([1]; Concentration 39.0625) was 137775 and 105993 and 131607 and 122061. For the same molecule, the “raw caspase 3/7 glo signal” value ([1]; Concentration 78.125) was 135249 and 137668 and 143467 and 142866, the “raw caspase 3/7 glo signal” value ([1]; Concentration 156.25) was 101297 and 110278 and 108541 and 114189 and the “raw caspase 3/7 glo signal” value ([1]; Concentration 312.5) was 98096 and 116170 and 98914 and 130859. The “raw caspase 3/7 glo signal” value ([1]; Concentration 625) was 117128 and 121353 and 128759 and 123804, the “raw caspase 3/7 glo signal” value ([1]; Concentration 1250) was 212391 and 226804 and 198553 and 246616 and the “raw caspase 3/7 glo signal” value ([1]; Concentration 2500) was 314760 and 286983 and 322612 and 319985. The “raw caspase 3/7 glo signal” value ([1]; Concentration 5000) was 280409 and 304325 and 302507 and 330408, the “raw caspase 3/7 glo signal” value ([1]; Concentration 10000) was 320499 and 297797 and 322913 and 320880 and the “mean_norm (caspase 3/7 glo)” value ([2]; Concentration 0.0195312) was 0.9498. For the same molecule, the “mean_norm (caspase 3/7 glo)” value ([2]; Concentration 0.0390625) was 0.9355, the “mean_norm (caspase 3/7 glo)” value ([2]; Concentration 0.078125) was 1.009 and the “mean_norm (caspase 3/7 glo)” value ([2]; Concentration 0.15625) was 0.7951. The “mean_norm (caspase 3/7 glo)” value ([2]; Concentration 0.3125) was 0.7961, the “mean_norm (caspase 3/7 glo)” value ([2]; Concentration 0.625) was 0.9439 and the “mean_norm (caspase 3/7 glo)” value ([2]; Concentration 1.25) was 1.163. The “mean_norm (caspase 3/7 glo)” value ([2]; Concentration 2.5) was 1.635, the “mean_norm (caspase 3/7 glo)” value ([2]; Concentration 5) was 1.96 and the “mean_norm (caspase 3/7 glo)” value ([2]; Concentration 10) was 2.136. For the same molecule, the “raw caspase 3/7 glo signal” value ([2]; Concentration 19.5312) was 101820 and 113248 and 111453 and 123771, the “raw caspase 3/7 glo signal” value ([2]; Concentration 39.0625) was 126417 and 91473 and 129554 and 96056 and the “raw caspase 3/7 glo signal” value ([2]; Concentration 78.125) was 125458 and 106940 and 132813 and 113259. For the same molecule, the “raw caspase 3/7 glo signal” value ([2]; Concentration 156.25) was 92236 and 94370 and 93114 and 97215, the “raw caspase 3/7 glo signal” value ([2]; Concentration 312.5) was 90006 and 94305 and 93528 and 99564 and the “raw caspase 3/7 glo signal” value ([2]; Concentration 625) was 118546 and 104034 and 117323 and 107564. For the same molecule, the “raw caspase 3/7 glo signal” value ([2]; Concentration 1250) was 131108 and 131356 and 152167 and 136802, the “raw caspase 3/7 glo signal” value ([2]; Concentration 2500) was 182654 and 187485 and 215491 and 189535 and the “raw caspase 3/7 glo signal” value ([2]; Concentration 5000) was 226831 and 221170 and 240802 and 240601. The “raw caspase 3/7 glo signal” value ([2]; Concentration 10000) was 259590 and 240701 and 269097 and 243095, the “P3_avg (P3 = early apoptotic)” value ([3]; Concentration 0.75) was 0.03538 and the “P5_avg (P5 = late apoptotic)” value ([3]; Concentration 0.75) was 0.001761. The “P3_avg (P3 = early apoptotic)” value ([3]; Concentration 1.5) was 0.08725, the “P5_avg (P5 = late apoptotic)” value ([3]; Concentration 1.5) was 0.03439 and the avgprop_P3 ([3]; Y220C, Concentration 0.75) was 0.03538. The avgprop_P4 ([3]; Y220C, Concentration 0.75) was 0.005431, the avgprop_P5 ([3]; Y220C, Concentration 0.75) was 0.001761 and the avgprop_P2 ([3]; Y220C, Concentration 0.75) was 0.9574. For the same molecule, the P2_viable [3, 4] was 2186 and 2152 and 2185, the P3_AnnexinPos_PIneg [3, 4] was 74 and 98 and 69 and the P4_PIpos_AnnexinNeg [3, 4] was 7 and 17 and 13. For the same molecule, the P5_PIpos_Annexinpos [3, 4] was 5 and 3 and 4, the prop_P3 [3, 4] was 0.03257 and 0.04317 and 0.03038 and the prop_P4 [3, 4] was 0.003081 and 0.007489 and 0.005724. The prop_P5 ([3]; Y220C, Concentration 0.75, proportion PIpos Annexinpos, single replicate) was 0.002201 and 0.001322 and 0.001761, the prop_P2 ([3]; Y220C, Concentration 0.75, proportion viable, single replicate) was 0.9621 (2×) and 0.948 and the avgprop_P3 ([3]; Y220C, Concentration 1.5) was 0.08725. For the same molecule, the avgprop_P4 ([3]; Y220C, Concentration 1.5) was 0.1027, the avgprop_P5 ([3]; Y220C, Concentration 1.5) was 0.03439 and the avgprop_P2 ([3]; Y220C, Concentration 1.5) was 0.7757. For the same molecule, the P2_viable [3, 5] was 1282 and 1336 and 510, the P3_AnnexinPos_PIneg [3, 5] was 163 and 159 and 47 and the P4_PIpos_AnnexinNeg [3, 5] was 201 and 160 and 62. For the same molecule, the P5_PIpos_Annexinpos [3, 5] was 59 and 56 and 23, the prop_P3 [3, 5] was 0.0956 and 0.09293 and 0.07321 and the prop_P4 [3, 5] was 0.1179 and 0.09351 and 0.09657.
